Data reported in PubChem BioAssay (NCI).
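96-well plates; 48 h exposure; 5 concentrations. Endpoints by linear interpolation between flanking doses. Not reached: highest tested concentration assigned. The concentration for 50% growth inhibition is given as GI50. TGI denotes the concentration required for complete inhibition of growth.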

Key:
Test in all cases: NCI anticancer screen, dose series, 48 h
[1] = test system: NCI-H23 lung
[2] = test system: HOP-92 NSCLC
[3] = test system: RXF 393 renal
[4] = test system: NCI-H522 lung
[5] = test system: U251 CNS
[6] = test system: HT29 colon
[7] = test system: EKVX NSCLC
[8] = test system: SR leukemia
[9] = test system: DU-145 prostate
[10] = test system: T-47D breast

Compound	TGI [1] [µM]	TGI [2] [µM]	TGI [3] [µM]	TGI [4] [µM]	TGI [5] [µM]	TGI [6] [µM]	TGI [7] [µM]	TGI [8] [µM]	GI50 [1] [µM]	GI50 [2] [µM]	GI50 [3] [µM]	GI50 [4] [µM]	GI50 [9] [µM]	TGI [9] [µM]	GI50 [5] [µM]	GI50 [6] [µM]	GI50 [7] [µM]	GI50 [10] [µM]	TGI [10] [µM]	GI50 [8] [µM]
C[Si](C)(C)C1(Sc2ccccc2)SCCCS1	> 100	> 100	> 100	68.6	> 100	> 100	> 100													
COc1ccc(S(=O)(=O)NNS(C)(=O)=O)cc1	> 100		> 100	> 100	> 100	> 100	> 100	> 100												
CCCCCCN(CCCCCC)C(=O)Cc1c2n(c3ccccc13)Cc1ccccc1-2	> 100	79.7	> 100	> 100	> 100	> 100	> 100	> 100												
C[C@@H]1CCC2[C@@H](C)[C@@H](OCC(CO[C@H]3OC4O[C@@]5(C)CC[C@H]6[C@H](C)CCC([C@H]3C)[C@@]46OO5)OC(=O)CCC(=O)O)OC3O[C@@]4(C)CC[C@@H]1[C@]32OO4 (stereo not given in full)	11.3	3.26	0.205	15.4	24.5	> 34.9	41		0.0101	0.097	< 0.01	0.0628	6.4	27.3	< 0.01	< 0.01	3.03	< 0.01	> 100	
CC(=O)[C@@]12O[C@@H]1CC1C3CCC4=CC(O)CCC4(C)C3CCC12C (stereo not given in full)	> 100		65.6	> 100	41.3	> 100	> 100	> 100	55.8		28.6	> 100	15	31.8	19.1	47.9	> 100			> 100
Cc1ccc(NC(=O)c2cc3cc(N=Nc4ccccc4C(=O)O)ccc3oc2=O)cc1	> 100		> 100	> 100	> 100	> 100	> 100													
CCOC(=O)CC(=O)ON(C)C(C)=O	> 100			> 100	> 100	> 100	> 100	> 100												
c1ccc(COc2cccc3ccc[n+](Cc4ccccc4)c23)cc1	23.9	34.2	61.9	8.02	> 100	> 100	> 100													
CCOC(=O)c1cc2nc3ccccc3c(=O)n2c2ccccc12	> 10	> 10	> 10	> 10	> 10	> 10	> 10							> 10					> 10	
O=C1c2cc3c(cc2-c2c1c1ccc(F)cc1c(=O)n2CCCNCCO)OCO3	0.147	0.845	0.322	0.106	0.102	0.152	1.21		0.0304	0.198	0.1	0.014	0.0329	1.09	0.0225	0.0279	0.211			
C/C(=N\NC(=S)NC(CCC(=O)O)C(=O)O)c1ccccn1 (stereo not given)	> 100	> 100	> 100	> 100	> 100	> 100	> 100	> 100												
CN(C)c1ccc(/C=C(\NC(=O)c2ccccc2)c2nc3ncncc3[nH]2)cc1	> 100	> 100	> 100	> 100	> 100	> 100	> 100	> 100												
CC(C)=Cc1cc(C(=O)Nc2ccc(Cl)c(Cl)c2)nc(N)n1	> 100	> 100	> 100		> 100	> 100	> 100													
C#CC1(O)CCC2C3CCc4cc(Oc5nc(F)nc(-c6c7ccccc7c7sc8ccccc8n67)n5)ccc4C3CC[C@@]21C (stereo not given in full)	> 100	> 100		43.7	> 100	> 100		> 100												
CCN(CC)/C(SCc1ccccc1)=C(\C(Cl)=C(Cl)Cl)[N+](=O)[O-]	49.6		26.6	47.2	49	81.7	56.4	73.6						39.2					86.7	
CC1(C)C2CCC(=O)C1CC2 (stereo not given)	> 100		> 100	> 100	> 100	> 100								> 100					> 100	
COc1ccc([C@H]2[C@@H](F)C(=O)N2c2cc(OC)c(OC)c(OC)c2)cc1F	> 100	63.9	66	> 100	> 100	> 100	> 100	> 100	0.273	0.266	0.0398	0.0383	0.269	> 100	0.236	0.134	0.202			0.0408
CCOC(=O)NC(=O)c1cn(CCCO)c(=O)[nH]c1=O	> 100	> 100			> 100	> 100	> 100													
Cc1ccc(S(=O)(=O)Nc2ccccc2C(=O)c2ccc(C)c(C)c2)cc1	> 100		> 100	> 100	> 100	> 100	> 100							> 100					> 100	
ClCc1cccc(Cn2cnc3ncnc(Cl)c32)c1	3.38		17.4	23.9	3.95	> 100	29.7		1.23		2.02	6.19	15.2	31	1.97	2.89	13.7	0.212	0.497	
[Cl-].[La+3].[O-]/N=C(\c1ccccc1)c1ccccn1.[O-]/N=C(\c1ccccc1)c1ccccn1.[O-]/N=C(\c1ccccc1)c1ccccn1	> 100		> 90.4	> 100	> 100	> 100	> 89.5	> 100	57.1		29.8	44.5			32	50.4	40.6			36.5
